Assays:
Format in all cases: cell-based
[1] = molecular target: T1, EGFR L858R/T790M (H1975-clone #36, homozygous) (Homo sapiens, UniProt P00533, L858R/T790M); assay: EGFR degradation HTRF assay, H1975-clone #36 cells; settings: H1975 #36, 16h treatment; for Dmax: NCI-H1975, maximum percentage of degradation
T1 construct: designed to specifically target WT EGFR but preserve the L858R/T790M copy; host or cells: H1975-clone #36
Method in brief: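 H1975 clone #36, made homozygous for L858R/T790M EGFR by knockout of the WT allele, treated 16 h at 37 °C with compound in 0.2% DMSO medium. Eight doses from 10 uM, 5-fold dilutions. EGFR measured by HTRF in lysates. DC50 and Dmax fitted against DMSO controls.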

[2] = test system: EGFR Del19/T790M/C797S (BaF3-DTC cells); assay: EGFR degradation HTRF assay, BaF3-DTC cells; settings: 16h treatment; for DTC Dmax (%): maximum percentage of degradation; for DC50: read-out: DTC DC50
Method in brief: (§1)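 EGFR remaining after a 16 h, 37 °C exposure (8 doses, 5-fold steps from 10 uM final, 0.2% DMSO) was quantified by HTRF antibodies in cell lysate. Percent inhibition relative to DMSO control was fitted by four-parameter logistic to give DC50; Dmax denotes maximal degradation.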

EGFR WT (BaF3 WT cells) = molecular target: T2, EGFR WT (BaF3 WT cells) (Homo sapiens, UniProt P00533); assay: EGFR degradation HTRF assay, BaF3 WT cells; settings: BaF3 WT, 16h treatment; for Dmax: maximum percentage of degradation, read-out: WT Dmax (%)
T2 construct: expressed in transfected cells; host or cells: BaF3
Method in brief: as §1

[3] = molecular target: T3, EGFR L858R/T790M/C797S (BaF3-LTC cells) (Homo sapiens, UniProt P00533, C797S/L858R/T790M); assay: EGFR degradation HTRF assay, BaF3-LTC cells; settings: BaF3-LTC, 16h treatment; for Dmax: maximum percentage of degradation, read-out: LTC Dmax (%); for DC50: read-out: LTC DC50
T3 construct: expressed in transfected cells; host or cells: BaF3
Method in brief: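 Cells treated 16 h at 37 °C, 5% CO2 in medium with 0.2% DMSO; top final concentration 10 uM, 5-fold dilution, 8 doses. Lysates read by HTRF (665/620 nm); degradation % versus DMSO high control, DC50 from four-parameter fit, Dmax as maximal degradation.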

EGFR (HCC827 cells) = molecular target: T4, EGFR (HCC827 cells) (Homo sapiens, UniProt P00533, DEL746-750); assay: EGFR degradation HTRF assay, HCC827 cells; settings: HCC827, 16h treatment; for Dmax: maximum percentage of degradation
T4 construct: endogenous in cells; host or cells: HCC827
Method in brief: as §1

T2 sequence (P00533 25-1210): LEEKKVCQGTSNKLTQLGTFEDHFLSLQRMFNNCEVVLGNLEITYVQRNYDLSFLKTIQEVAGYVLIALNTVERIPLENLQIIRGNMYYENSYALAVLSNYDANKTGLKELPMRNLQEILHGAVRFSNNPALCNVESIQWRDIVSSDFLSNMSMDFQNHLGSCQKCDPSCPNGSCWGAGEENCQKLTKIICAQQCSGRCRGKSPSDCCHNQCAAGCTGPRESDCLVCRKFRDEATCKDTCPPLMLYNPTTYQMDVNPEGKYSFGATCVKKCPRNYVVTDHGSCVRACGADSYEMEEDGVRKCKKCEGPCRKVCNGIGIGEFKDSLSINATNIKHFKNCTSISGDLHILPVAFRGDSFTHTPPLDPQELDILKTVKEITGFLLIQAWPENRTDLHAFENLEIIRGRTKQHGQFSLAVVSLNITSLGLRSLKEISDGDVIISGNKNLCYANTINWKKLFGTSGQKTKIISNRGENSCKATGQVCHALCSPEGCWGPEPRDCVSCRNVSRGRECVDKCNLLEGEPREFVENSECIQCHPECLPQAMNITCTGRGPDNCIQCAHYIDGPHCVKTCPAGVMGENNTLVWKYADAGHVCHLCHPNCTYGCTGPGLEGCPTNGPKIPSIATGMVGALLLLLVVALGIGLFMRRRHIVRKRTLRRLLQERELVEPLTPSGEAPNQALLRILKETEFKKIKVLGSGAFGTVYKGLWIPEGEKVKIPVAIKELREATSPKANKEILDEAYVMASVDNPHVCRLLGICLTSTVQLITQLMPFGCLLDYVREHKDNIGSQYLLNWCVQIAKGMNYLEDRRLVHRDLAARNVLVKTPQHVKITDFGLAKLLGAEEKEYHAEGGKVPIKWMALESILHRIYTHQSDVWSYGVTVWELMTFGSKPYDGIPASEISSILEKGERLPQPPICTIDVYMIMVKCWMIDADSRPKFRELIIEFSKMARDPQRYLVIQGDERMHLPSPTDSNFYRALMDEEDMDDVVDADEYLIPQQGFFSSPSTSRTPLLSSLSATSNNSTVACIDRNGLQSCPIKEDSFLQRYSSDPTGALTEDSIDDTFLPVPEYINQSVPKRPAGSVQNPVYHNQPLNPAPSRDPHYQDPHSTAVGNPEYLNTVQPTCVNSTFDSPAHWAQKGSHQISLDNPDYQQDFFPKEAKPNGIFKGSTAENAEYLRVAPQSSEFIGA
T3 sequence (P00533 25-1210 T790M/C797S/L858R): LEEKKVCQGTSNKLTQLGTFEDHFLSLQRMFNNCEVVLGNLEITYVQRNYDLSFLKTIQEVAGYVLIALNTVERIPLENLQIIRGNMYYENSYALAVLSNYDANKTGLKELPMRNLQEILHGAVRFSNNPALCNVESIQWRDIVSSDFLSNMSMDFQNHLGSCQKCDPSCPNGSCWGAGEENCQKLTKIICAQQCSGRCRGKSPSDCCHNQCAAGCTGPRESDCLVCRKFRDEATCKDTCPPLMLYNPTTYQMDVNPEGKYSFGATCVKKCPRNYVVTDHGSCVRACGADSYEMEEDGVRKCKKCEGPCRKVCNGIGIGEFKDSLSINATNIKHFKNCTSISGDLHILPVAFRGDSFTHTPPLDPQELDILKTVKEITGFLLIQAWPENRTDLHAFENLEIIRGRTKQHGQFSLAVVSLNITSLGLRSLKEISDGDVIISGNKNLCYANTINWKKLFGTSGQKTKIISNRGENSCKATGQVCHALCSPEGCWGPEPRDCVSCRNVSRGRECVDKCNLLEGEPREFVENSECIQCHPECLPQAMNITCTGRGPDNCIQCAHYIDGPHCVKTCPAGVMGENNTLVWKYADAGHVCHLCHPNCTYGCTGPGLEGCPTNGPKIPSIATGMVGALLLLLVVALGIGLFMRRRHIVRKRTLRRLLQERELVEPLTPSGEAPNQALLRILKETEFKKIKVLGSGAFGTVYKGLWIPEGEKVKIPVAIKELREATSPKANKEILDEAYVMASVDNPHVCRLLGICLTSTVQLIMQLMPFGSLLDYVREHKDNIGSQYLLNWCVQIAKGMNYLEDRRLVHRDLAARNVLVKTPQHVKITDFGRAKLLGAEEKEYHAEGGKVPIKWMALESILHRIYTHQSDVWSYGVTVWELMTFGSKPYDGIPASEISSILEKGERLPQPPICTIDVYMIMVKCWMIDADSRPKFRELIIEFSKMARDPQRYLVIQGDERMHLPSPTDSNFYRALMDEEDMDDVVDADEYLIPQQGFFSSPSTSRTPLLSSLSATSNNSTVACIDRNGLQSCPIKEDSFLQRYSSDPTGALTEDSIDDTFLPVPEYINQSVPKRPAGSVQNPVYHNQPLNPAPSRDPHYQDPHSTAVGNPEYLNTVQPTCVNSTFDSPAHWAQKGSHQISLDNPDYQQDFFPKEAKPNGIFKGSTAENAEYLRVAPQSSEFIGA
T4 sequence (P00533 with tags, fused parts or gaps DEL746-750): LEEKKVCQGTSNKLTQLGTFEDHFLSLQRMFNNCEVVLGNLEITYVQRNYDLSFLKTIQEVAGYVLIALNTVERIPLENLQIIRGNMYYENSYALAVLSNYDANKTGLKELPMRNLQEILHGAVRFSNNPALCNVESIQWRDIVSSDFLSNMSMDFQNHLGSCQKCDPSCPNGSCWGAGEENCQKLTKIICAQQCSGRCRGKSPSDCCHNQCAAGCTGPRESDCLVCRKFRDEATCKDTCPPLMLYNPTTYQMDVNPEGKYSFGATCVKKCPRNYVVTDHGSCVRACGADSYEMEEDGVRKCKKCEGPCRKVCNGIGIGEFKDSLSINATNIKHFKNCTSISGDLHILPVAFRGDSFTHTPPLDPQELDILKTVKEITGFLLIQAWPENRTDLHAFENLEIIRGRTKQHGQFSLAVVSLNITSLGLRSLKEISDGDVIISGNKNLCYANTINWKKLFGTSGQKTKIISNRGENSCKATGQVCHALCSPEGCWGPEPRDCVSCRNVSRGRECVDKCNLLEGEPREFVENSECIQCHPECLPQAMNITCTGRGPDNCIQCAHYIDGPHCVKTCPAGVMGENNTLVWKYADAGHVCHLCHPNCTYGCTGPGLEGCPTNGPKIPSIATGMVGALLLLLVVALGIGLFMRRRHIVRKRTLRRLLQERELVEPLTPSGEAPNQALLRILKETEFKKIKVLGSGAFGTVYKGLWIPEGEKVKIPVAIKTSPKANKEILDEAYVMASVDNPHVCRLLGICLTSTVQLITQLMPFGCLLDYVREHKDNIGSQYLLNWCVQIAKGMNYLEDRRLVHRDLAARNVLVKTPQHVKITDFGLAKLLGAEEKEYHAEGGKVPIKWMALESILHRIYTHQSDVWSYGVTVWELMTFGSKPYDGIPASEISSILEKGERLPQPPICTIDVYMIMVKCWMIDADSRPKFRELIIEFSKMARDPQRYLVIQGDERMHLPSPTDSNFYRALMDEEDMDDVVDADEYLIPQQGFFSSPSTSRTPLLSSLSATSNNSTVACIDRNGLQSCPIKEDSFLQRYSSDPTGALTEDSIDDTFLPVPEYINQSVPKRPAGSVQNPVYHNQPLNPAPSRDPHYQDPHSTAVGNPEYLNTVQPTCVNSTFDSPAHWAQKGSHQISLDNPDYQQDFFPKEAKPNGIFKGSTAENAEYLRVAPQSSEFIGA
T1 sequence (P00533 25-1210 T790M/L858R): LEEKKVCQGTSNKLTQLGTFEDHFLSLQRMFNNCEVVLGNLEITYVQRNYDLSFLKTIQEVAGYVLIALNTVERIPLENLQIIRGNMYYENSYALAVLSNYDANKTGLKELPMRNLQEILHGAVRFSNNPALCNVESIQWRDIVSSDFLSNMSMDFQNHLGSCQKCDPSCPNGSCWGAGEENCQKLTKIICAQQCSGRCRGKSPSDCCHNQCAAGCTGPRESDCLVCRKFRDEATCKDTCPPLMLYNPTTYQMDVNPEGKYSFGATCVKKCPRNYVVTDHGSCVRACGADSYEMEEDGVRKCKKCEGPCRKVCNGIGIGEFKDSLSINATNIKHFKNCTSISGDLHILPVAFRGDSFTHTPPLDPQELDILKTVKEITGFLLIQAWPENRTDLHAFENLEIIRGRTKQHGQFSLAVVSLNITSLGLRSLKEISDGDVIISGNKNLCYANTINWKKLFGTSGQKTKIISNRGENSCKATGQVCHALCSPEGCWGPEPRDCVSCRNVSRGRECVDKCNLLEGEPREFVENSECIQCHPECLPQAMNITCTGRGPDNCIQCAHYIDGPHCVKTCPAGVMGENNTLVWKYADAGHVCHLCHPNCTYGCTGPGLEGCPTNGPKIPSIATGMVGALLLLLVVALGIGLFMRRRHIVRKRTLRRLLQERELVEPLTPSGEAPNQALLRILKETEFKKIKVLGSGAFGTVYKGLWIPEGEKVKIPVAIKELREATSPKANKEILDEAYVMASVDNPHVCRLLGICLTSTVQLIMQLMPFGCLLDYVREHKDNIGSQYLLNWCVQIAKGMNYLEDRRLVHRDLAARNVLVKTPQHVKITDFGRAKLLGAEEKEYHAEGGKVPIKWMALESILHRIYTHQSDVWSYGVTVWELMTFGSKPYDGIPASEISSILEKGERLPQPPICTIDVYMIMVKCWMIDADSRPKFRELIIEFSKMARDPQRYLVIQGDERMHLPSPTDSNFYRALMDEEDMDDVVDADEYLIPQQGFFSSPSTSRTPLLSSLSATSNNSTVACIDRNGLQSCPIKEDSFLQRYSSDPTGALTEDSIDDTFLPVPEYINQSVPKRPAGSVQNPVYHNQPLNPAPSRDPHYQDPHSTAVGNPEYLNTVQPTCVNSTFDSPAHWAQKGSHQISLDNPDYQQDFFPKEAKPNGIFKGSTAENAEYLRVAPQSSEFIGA

Row | DC50 [1] | Dmax [1] | DC50 [2] | DC50 (EGFR WT (BaF3 WT cells)) | Dmax (EGFR WT (BaF3 WT cells)) | Dmax [3] | DC50 [3] | DC50 (EGFR (HCC827 cells)) | Dmax (EGFR (HCC827 cells)) | SMILES | DTC Dmax (%) [2]
1 | > 156 nM | 49% | 18.2 nM | > 10000 nM | 41.9% | 90.5% | 36.4 nM | 3.95 nM | 74.3% | CCc1cc(Nc2ncc(Br)c(Nc3ccc4nccnc4c3P(C)(C)=O)n2)c(OC)cc1N1CCC(N2CCN(CCCCCc3ccc(C4CCC(=O)NC4=O)cc3)CC2)CC1 (stereo not shown) [Example 7, 3-(4-(5-(4-(1-(4-((5-bromo-4-((5-(dimethylphosphoryl)quinoxalin-6-yl)amino)pyrimidin-2-yl)amino)-2-ethyl-5-methoxyphenyl)piperidin-4-yl)piperazin-1-yl)pentyl)phenyl)piperidine-2,6-dione] | 95.15%
2 | 6.5 nM | 88.8% | 9.52 nM | > 10000 nM | 16.9% | 79.5% | 31.4 nM | 2.63 nM | 93.4% | CCc1cc(Nc2ncc(Br)c(Nc3ccc4nccnc4c3P(C)(C)=O)n2)c(OC)cc1N1CCC(N2CCN(CCCC3CN(c4ccc5c(c4)C(=O)N(C4CCC(=O)NC4=O)C5=O)C3)CC2)CC1 (stereo not shown) [Example 56, 5-(3-(3-(4-(1-(4-((5-bromo-4-((5-(dimethylphosphoryl)quinoxalin-6-yl)amino)pyrimidin-2-yl)amino)-2-ethyl-5-methoxyphenyl)piperidin-4-yl)piperazin-1-yl)propyl)azetidin-1-yl)-2-(2,6-dioxopiperidin-3-yl)isoindoline-1,3-dione] | 82.17%
3 | 2.31 nM | 85.6% | 8.05 nM | > 10000 nM | 15.4% | 75.5% | 14.2 nM | 2.53 nM | 73.9% | CCc1cc(Nc2ncc(Br)c(Nc3ccc4nccnc4c3P(C)(C)=O)n2)c(OC)cc1N1CCC(N2CCN(C(=O)[C@@H]3CCN(c4ccc5c(c4)C(=O)N(C4CCC(=O)NC4=O)C5=O)C3)CC2)CC1 (stereo partly drawn) [Example 65, 5-((R)-3-(4-(1-(4-((5-bromo-4-((5-(dimethylphosphoryl)quinoxalin-6-yl)amino)pyrimidin-2-yl)amino)-2-ethyl-5-methoxyphenyl)piperidin-4-yl)piperazine-1-carbonyl)pyrrolidin-1-yl)-2-(2,6-dioxopiperidin-3-yl)isoindoline-1,3-dione] | 80.45%
4 | 7.24 nM | 95.8% | 13.5 nM | > 10000 nM | 35.3% | 82.1% | 17 nM | 9.06 nM | 89.9% | CP(C)(=O)c1c(Nc2nc(Nc3ccc(N4CCN(C5CN(CCC6CCN(c7ccc(C8CCC(=O)NC8=O)c(F)c7)CC6)C5)CC4)c(F)c3)ncc2Br)ccc2nccnc12 (stereo not shown) [Example 203, 3-(4-(4-(2-(3-(4-(4-((5-bromo-4-((5-(dimethylphosphoryl)quinoxalin-6-yl)amino)pyrimidin-2-yl)amino)-2-fluorophenyl)piperazin-1-yl)azetidin-1-yl)ethyl)piperidin-1-yl)-2-fluorophenyl)piperidine-2,6-dione] | 92.4%
